Experimental data taken from ChEMBL document CHEMBL1123515, “Bioisosteric prototype design of biaryl imidazolyl and triazolyl competitive histamine H2-receptor antagonists” (1986).
Values belong to the compound of their own block, whether it stands above or below them.

Tests used:
Canis familiaris [1] = test: Maximum percent inhibition of acid output in penta gastrin-stimulated Heidenhain pouch dogs at a dose of 1 mg/kg, given intravenously (iv).; assay type: functional; conditions: Canis lupus familiaris
Canis familiaris [2] = test: Maximum percent inhibition of acid output in penta gastrin-stimulated Heidenhain pouch dogs at a dose of 10 mg/kg, given intravenously (iv).; assay type: functional; conditions: Canis lupus familiaris
Canis familiaris [3] = test: Maximum percent inhibition of acid output in penta gastrin-stimulated Heidenhain pouch dogs at a dose of 5 mg/kg, given intravenously (iv).; assay type: functional; conditions: Canis lupus familiaris
[4] = biological target: Histamine H2 receptor (Cavia porcellus) (UniProt P47747); test: Histamine H2 receptor antagonistic activity was evaluated in guinea pig atrium.; assay type: functional, tissue-based; conditions: Cardiac atrium
Canis familiaris [5] = test: Effective dose on oral administration was evaluated for the inhibition of acid output in penta gastrin stimulated Heidenhain pouch dogs; assay type: functional; conditions: Canis lupus familiaris
Canis familiaris [6] = test: Maximum percent inhibition of acid output in penta gastrin-stimulated Heidenhain pouch dogs at a dose of 0.5 mg/kg, given intravenously (iv).; assay type: functional; conditions: Canis lupus familiaris
Canis familiaris [7] = test: Effective dose on intravenous administration was evaluated for the inhibition of acid output in penta gastrin stimulated Heidenhain pouch dogs; assay type: functional; conditions: Canis lupus familiaris
Canis familiaris [8] = test: Maximum percent inhibition of acid output in penta gastrin-stimulated Heidenhain pouch dogs at a dose of 7 mg/kg, given intravenously (iv).; assay type: functional; conditions: Canis lupus familiaris

Sequence of Histamine H2 receptor (Cavia porcellus) (P47747 whole entry): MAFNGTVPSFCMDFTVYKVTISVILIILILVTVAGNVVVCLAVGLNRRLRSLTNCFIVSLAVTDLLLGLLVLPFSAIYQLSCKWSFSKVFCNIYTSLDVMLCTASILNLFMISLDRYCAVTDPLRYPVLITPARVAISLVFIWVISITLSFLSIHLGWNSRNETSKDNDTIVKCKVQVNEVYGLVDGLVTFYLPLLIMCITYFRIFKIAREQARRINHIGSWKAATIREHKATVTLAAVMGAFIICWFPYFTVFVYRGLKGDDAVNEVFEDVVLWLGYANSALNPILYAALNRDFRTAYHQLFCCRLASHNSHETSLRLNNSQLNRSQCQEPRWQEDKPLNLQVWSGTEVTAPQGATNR

Compound: N=C(N)Nc1nc(-c2n[nH]c(N)n2)cs1
inhibition in vivo at 1 mg/kg (Canis familiaris [1]): 58%

Compound: C/N=C(\S)NCc1cc(-c2n[nH]c(N)n2)ccn1
inhibition in vivo at 10 mg/kg (Canis familiaris [2]): 19%

Compound: CCNc1cc(-c2c[nH]c(C/N=C(\NC)NC#N)n2)ccn1
inhibition in vivo at 5 mg/kg (Canis familiaris [3]): 32%

Compound: CCNc1cc(-c2n[nH]c(CCC/N=C(/S)NC)n2)ccn1
inhibition in vivo at 1 mg/kg (Canis familiaris [1]): 20%

Compound: CCNc1cc(-c2n[nH]c(CCCC/N=C(\S)NC)n2)ccn1
inhibition in vivo at 5 mg/kg (Canis familiaris [3]): 27%

Kb [4]: 0.166 µM
Compound: CNC(=C[N+](=O)[O-])NCCSCc1ccc(CN(C)C)o1

Kb [4]: 0.55 µM
Compound: CCNc1cc(-c2c[nH]c(CC/N=C(\S)NC)n2)ccn1
inhibition in vivo at 5 mg/kg (Canis familiaris [3]): 47%

Kb [4]: 0.018 µM
Compound: Cc1ncc(-c2csc(N=C(N)N)n2)[nH]1 [ZALTIDINE]
ED50 (Canis familiaris [5]): 0.27 mg/kg
inhibition in vivo at 0.5 mg/kg (Canis familiaris [6]): 90%

Compound: CCNc1cc(-c2n[nH]c(N)n2)ccn1
ED50 (Canis familiaris [7]): 0.87 mg/kg

Compound: Cc1n[nH]c(-c2csc(N=C(N)N)n2)n1
inhibition in vivo at 1 mg/kg (Canis familiaris [1]): 50%

Compound: CCNc1cc(-c2n[nH]c(CCCC/N=C(/NC)NC#N)n2)ccn1
inhibition in vivo at 10 mg/kg (Canis familiaris [2]): 16%

Compound: CCNc1cc(-c2n[nH]c(C/N=C(/S)NC)n2)ccn1
inhibition in vivo at 10 mg/kg (Canis familiaris [2]): 48%

Compound: CCNc1cc(-c2c[nH]c(C/N=C(/S)NC)n2)ccn1
inhibition in vivo at 5 mg/kg (Canis familiaris [3]): 54%

Kb [4]: 1.24 µM
Compound: CCNc1cc(-c2n[nH]c(CC/N=C(/NC)NC#N)n2)ccn1
inhibition in vivo at 7 mg/kg (Canis familiaris [8]): 0%

Compound: N=C(N)Nc1nc(-c2c[nH]cn2)cs1
inhibition in vivo at 1 mg/kg (Canis familiaris [1]): 95%

Kb [4]: 0.69 µM
Compound: CCNc1cc(-c2n[nH]c(CC/N=C(\S)NC)n2)ccn1
inhibition in vivo at 1 mg/kg (Canis familiaris [1]): 59%

Compound: CCNc1cc(-c2n[nH]c(C/N=C(\NC)NC#N)n2)ccn1
inhibition in vivo at 10 mg/kg (Canis familiaris [2]): 0%

Compound: CN/C(=N\CCSCc1nc[nH]c1C)NC#N [CIMETIDINE]
ED50 (Canis familiaris [5]): 1.32 mg/kg
inhibition in vivo at 10 mg/kg (Canis familiaris [2]): 1.02%

Compound: N=C(N)Nc1nc(-c2c[nH]c(N)n2)cs1
inhibition in vivo at 1 mg/kg (Canis familiaris [1]): 96%
